Where two headings read alike, the source gives them in different places.
What was measured:
[1] = surfactant, cited from earlier work
[2] = Oil carrying capacity (oil fraction at lowest TSI); assay type: physicochemical; conditions: decane / MES-NaCl buffer, 0.1% (v/v) surfactant, 37° C.
Description: The proposed system of determining the oil fraction at which optimum emulsion stability occurs, the ‘oil carrying capacity’ (OCC) of the surfactant, is intended as a tool for surfactant selection in a system where the desired oil fraction is known. Equally, it may be used to optimise oil fraction ‘carried’ in the emulsion when a particular surfactant is required. It is a practical tool to be used in conjunction with other metrics, such as HLB, but its simplicity and broad application make it versatile and easy to implement to formulation practice.
The oil fraction at the lowest TSI after 15 minutes was identified as the ‘oil carrying capacity’ (OCC) of that surfactant. Further oil/buffer/surfactant mixtures were prepared at 5% oil fractions either side of this minimum (i.e. an initial minimum of 70% oil fraction would be tested then at 65% and 75% oil fraction).

[3] = Turbiscan emulsion stability (TSI) of decane/buffer emulsions stabilised with surfactant; assay type: physicochemical; conditions: 0.1% (v/v) surfactant, 15 mins after mixing
[4] = as above; assay type: physicochemical; conditions: 0.1% (v/v) surfactant, 15 mins after mixing; remark: listed apart in the source
Description: Stability was herein reported using the Turbiscan™ stability index (TSI). This non-destructive, non-invasive technique gives the stability of the sample over its whole selected height as a function of transmitted and backscattered light compared to the same measurements at the previous timepoint. Kinetic stability is built up over sequential scans. The pattern of change across the height of the sample gives a ‘fingerprint’ characteristic of the mode of destabilisation. TSI is defined in equation 1: […]
where scani is the backscattering value at a given timepoint, scani-1 is the backscattering value from the previous timepoint, h is the height of the scan and H is the total sample height from the first to the last scan. TSI is the sum of the differences between sequential scans and thus represents the stability of the sample over a defined timeframe. TSI reduces with increasing stability.
Stock solutions of surfactants were prepared in 7 ml polystyrene bijou by dispersing 0.1% (v/v) surfactant in decane so that surfactant scaled with oil fraction. These stock solutions were shaken briefly to disperse the surfactants before adding the deionised water. 4 ml mixtures were prepared in triplicate for each surfactant at various oil fractions (50, 60, 70, 80, 90% v/v oil-surfactant). Each sample was vortexed for 1 minute using WhirliMixer™ (Fisherbrand) to homogenise immediately prior to stability measurements.
3 ml of the sample was pipetted into a borosilicate glass cuvette, taking care to maintain a clean meniscus, and analysed using Turbiscan™ LAB Analyser (Formulation, Toulouse, France) scanning every 30 seconds for a total of 15 minutes.
Turbiscan stability index (TSI) was plotted for each surfactant as a function of oil fraction in the emulsion preparation, HLB, or time. Lower TSI indicates less change in the transmitted light, or less change in particle size and position.
Stability was measured using the Turbiscan™ static multiple light scattering analyser and expressed using the Turbiscan stability index (TSI) which reflects the change in transmitted and backscattered light across the height of a sample over a period of time. A higher value of TSI reflects poorer stability; a lower value reflects greater stability. However, because TSI measures rate of change, emulsions which break instantly after mixing ceases can display low TSI values.

[5] = tested on: h-tert human mesenchymal stem cells; assay: Cyto-compatibility of scaffolds (CCK-8, contact and leachable assay); assay type: cell-based; conditions: acute (24 h) and chronic (120 h) exposure; surfactant at 0.1% v/v in media
Method: Cylindrical samples were cut with an 8 mm biopsy punch (n=3) were cut from two scaffolds. […] At 24 h (acute response time) and 120 h (chronic response time), 300 μl DMEM/CCK-8 (10:1) was added and incubated for 4 hours at 37° C. before reading absorbance at 450 nm. Two scaffolds of the same composition (D3, D4) from different manufacturing batches (0.1% Tx-165 surfactant, 90% porous, 2:1 fibrin: PVA, 2% fibrinogen) were tested with triplicate samples from each. […] This material is known to be non-cytotoxic, verified with both in vitro and in vivo assays.

[6] = Hydrophilic-lipophilic balance (HLB); assay type: physicochemical; conditions: experimentally determined required HLB range
Description: As understood herein, the term “hydrophilic-lipophilic balance (HLB)” describes the ratio between the size of the hydrophilic and lipophilic regions of a surfactant molecule. The empirically derived formula: […]
Was introduced for alkyl ethoxylates (Griffin W. C. J. Soc. Cosmet. Chem., 5 (1954), p. 249.) The HLB of more complex surfactant structures is found using a systematic approach based on chemical group assignments (Davies J. T., Rideal E. K. Interfacial Phenomena Academic Press, New York (1961), pp. 371-378):
HLB=7+Σ(Hydrophile group number)−Σ(lipophile group number)
A water-in-oil emulsion (w/o) has […]. An oil-in-water (o/w) emulsion has […]. The propensity for formation of a w/o or o/w emulsion is determined by the balance of hydrophobicity and hydrophilicity of the solutions in the mixture. This may be determined using the HLB scale. Oleic phase reagents are assigned an HLB number, determined experimentally, that allows for selection of an appropriate surfactant to cause emulsification with the aqueous phase. […] HLB as understood herein is a semi-quantitative measure of the relative molecular weights of the hydrophilic and lipophilic regions of a surfactant molecule assigned on a scale from 0.5 (extremely lipophilic) to 19.5 (extremely hydrophilic).

For “Octylphenol ethoxylate [Triton N-101 reduced]”, the HLB [1] is listed as 14.4.

For “Polyethylene glycol trimethylnonyl ether [Tergitol TMN-10]”, the HLB [1] is listed as 14.4.

In the case of C11-15 pareth-15 [Tergitol 15-S-15], the HLB [1] is given as 15.4.

In the case of “Polyethylene glycol tert-octylphenyl ether [Triton X-114 reduced]”, the HLB [1] is given as 13.4.

In the case of “Polyethylene glycol tert- octylphenyl ether [Triton X-100]”, the “oil fraction at maximum stability (oil carrying capacity)” value (from here on “oil fraction at maximum stability”) [2] is reported as 70%, the “Turbiscan stability index (TSI)” value ([3]; 75% v/v decane, mixing speed 1000 rpm) is reported as 3.571 and the “Turbiscan stability index (TSI)” value ([3]; 75% v/v decane, mixing speed 2000 rpm) is reported as 2.601. The “Turbiscan stability index (TSI)” value ([3]; 75% v/v decane, mixing speed 3000 rpm) was 2.723, the “Turbiscan stability index (TSI)” value ([3]; 75% v/v decane, mixing speed 4000 rpm) was 3.213 and the “Turbiscan stability index (TSI)” value ([3]; 75% v/v decane, mixing speed 5000 rpm) was 2.398. For the same compound, the “Turbiscan stability index (TSI)” value ([3]; 80% v/v decane, mixing speed 4000 rpm) was 9.886, the HLB [1] was 13.4 and the “Turbiscan stability index (TSI)” value ([4]; 70% v/v decane, mixing speed 1000 rpm) was 3.189. For the same compound, the “Turbiscan stability index (TSI)” value ([4]; 70% v/v decane, mixing speed 2000 rpm) was 2.758, the “Turbiscan stability index (TSI)” value ([4]; 70% v/v decane, mixing speed 3000 rpm) was 8.763 and the “Turbiscan stability index (TSI)” value ([4]; 70% v/v decane, mixing speed 4000 rpm) was 3.637. The “Turbiscan stability index (TSI)” value ([4]; 70% v/v decane, mixing speed 5000 rpm) was 2.705, the “Turbiscan stability index (TSI)” value ([4]; 80% v/v decane, mixing speed 1000 rpm) was 2.483 and the “Turbiscan stability index (TSI)” value ([4]; 80% v/v decane, mixing speed 2000 rpm) was 2.225. The “Turbiscan stability index (TSI)” value ([4]; 80% v/v decane, mixing speed 3000 rpm) was 2.493 and the “Turbiscan stability index (TSI)” value ([4]; 80% v/v decane, mixing speed 5000 rpm) was 5.128.

For “Polyethylene glycol tert-octylphenyl ether [Triton X-114]”, the “oil fraction at maximum stability” value [2] is given as 70% and the HLB [1] is given as 12.3.

In the case of “Polyethylene glycol 4-tert- octylphenyl ether [Triton X-45]”, the HLB [1] is given as 9.8.

In the case of Nonylphenol ethoxylate [Tergitol NP-10], the HLB [1] is listed as 13.2.

For “Polyethylene glycol 4-tert-octylphenyl ether [Triton X-100 reduced]”, the HLB [1] is listed as 9.8.

With Octylphenol ethoxylate [Triton X-165] the cytotoxicity [5] was “cytotoxic in itself”.

For C11-15 pareth-9 [Tergitol 15-S-9], the HLB [1] is given as 13.3 and the HLB ([1]; listed as Tergitol T-S-9) is given as about 13.

With Octylphenol ethoxylate [Triton X-102] the “oil fraction at maximum stability” value [2] was 70%.

For “Ethylene oxide-propylene oxide copolymer mono(2-ethylhexyl) ether [Ecosurf EH-9]”, the HLB [1] is given as 12.5.

For `CCCCCCCCCC` [decane], the “required HLB of the decane oil phase” value [6] was 10-13.

In the case of “Polyethylene glycol trimethylnonyl ether [Tergitol TMN-6]”, the HLB [1] is listed as 13.1.

In the case of C11-15 pareth-7 [Tergitol 15-S-7], the HLB [1] is given as 12.1.

For “Polyoxyethylene (40) isooctylphenyl ether [Triton X-405]”, the “oil fraction at maximum stability” value [2] is given as 70% and the HLB [1] is given as 17.6.
